One data set concerns a number of tumors. Conditions: preclinical tests; cited from earlier work.
Another data set concerns non-Hodgkin's lymphoma. As to conditions: single agent; cited from earlier work.
The subject of a further data set is smallcell lung cancer. As to conditions: single agent; cited from earlier work.
For data set [1] the following is noted: cited from earlier work.
A further data set relates to head and neck carcinoma. Conditions: single agent; cited from earlier work.
In data set [2] the test system is non-small cell lung cancer. As to conditions: single agent; cited from earlier work.
Another data set deals with dihydrofolate reductase. Conditions: cited from earlier work.
The test system of data set [3] is metastatic colorectal carcinoma. Conditions: single agent; cited from earlier work.
In the next data set the test system is P388 Murine Tumor. The data set is described as follows: in vivo. As to conditions: for Increased Life-Span / Long-term Survivors / Median Survival Time (± SEM): at maximum tolerated dose, q4d × 3 ip. The text has this: (§1) Combination treatment in mice. The P388 lymphoidal tumor was transplanted intraperitoneally (10^6 cells/mouse) into […] mice. The animals were randomized into control and treated groups after tumor implant. […] Therapy was repeated three times at four day intervals between each treatment.

The nature of a further data set: in vivo. Conditions: mouse, in vivo, ip.
Excerpt: as §1

In another data set the test system is sensitive tumor cells. Conditions: cited from earlier work.
Another data set concerns breast cancer. Conditions: cited from earlier work; for curative effect of the single agent: alone, metastatic breast cancer patients; for antitumor activity: single agent.
The test system of another data set is microtubules. As to conditions: cited from earlier work.
Data set [4] concerns refractory ovarian cancer. As to conditions: in vivo; cited from earlier work.

Each structure is given as a SMILES string. Entries after “also recorded” stand apart in the source; their conditions may differ. Like-named read-outs stand apart in the source and are kept apart here.

In the case of `CCC(Cc1cnc2nc(N)nc(N)c2n1)c1ccc(C(=O)N[C@@H](CCC(=O)O)C(=O)O)cc1` (some centres unmarked) [EDX, 10-ethyl-10-deaza-aminopterin], in the data set with a number of tumors, the “antitumor activity compared with methotrexate” value is “greater antitumor activity than methotrexate against a number of tumors”. Also, the antitumor activity result is “Antitumor activity of edatrexate has also been observed” with non-Hodgkin's lymphoma; “Antitumor activity of edatrexate has also been observed” with head and neck carcinoma; “Antitumor activity of edatrexate has also been observed” in the data set on breast cancer. Also, the anti-tumor activity result (with smallcell lung cancer; in data set [3]) was “No anti-tumor activity was observed” throughout. The “dosage limit due to side effects” value in [1] (given occasionally) is “up to 120 mg/m^2 /week”; in [1] (usual) it was 80 mg/m^2 body surface area/week. Moreover, the primary toxic effect result in [1] (single agent) is on record as “mucositis”. The response rates in data set [2] was roughly 30%. Also, the “inhibition of dihydrofolate reductase” value is “inhibits dihydrofolate reductase” with dihydrofolate reductase (listed as Edatrexate) and “inhibitor of dihydrofolate reductase” with dihydrofolate reductase (listed as edatrexate). Besides, the “Therapeutic activity (in words)” value in the data set on P388 Murine Tumor (P388 in mice, maximum tolerated dose) is “more effective than MTX”. The “Increased Life-Span” value with P388 Murine Tumor is listed as “+338%”. The “Long-term Survivors” value in the data set with P388 Murine Tumor is on record as 1/5. Also, the “Median Survival Time (± SEM)” value in the data set with P388 Murine Tumor is recorded as 35 ± 4 days. Moreover, in the data set “in vivo”, the MTD is 100 mg/kg. The “accumulation / retention in tumor cells compared with methotrexate” value in the data set with sensitive tumor cells is “accumulated in sensitive tumor cells to a greater extent than its predecessor methotrexate and was more selectively retained by the tumor cells”. In the data set with breast cancer, the “curative effect of the single agent” value is “neither edatrexate nor paclitaxel alone is curative for most metastatic breast cancer patients”.
Regarding `CN(Cc1cnc2nc(N)nc(N)c2n1)c1ccc(C(=O)N[C@@H](CCC(=O)O)C(=O)O)cc1` [MTX, methotrexate], in the data set on dihydrofolate reductase, the “inhibition of dihydrofolate reductase” value was “inhibitor of dihydrofolate reductase; also recorded: inhibits dihydrofolate reductase”. Moreover, in the data set on P388 Murine Tumor, the “Long-term Survivors” value is given as 0/5 and the “Median Survival Time (± SEM)” value was 27 ± 3 days. Moreover, the MTD in the data set “in vivo” amounted to 55 mg/kg.
Consider `CC(=O)O[C@H]1C(=O)[C@@]2(C)[C@H]([C@H](OC(=O)c3ccccc3)[C@]3(O)C[C@H](OC(=O)[C@H](O)[C@@H](NC(=O)c4ccccc4)c4ccccc4)C(C)=C1C3(C)C)[C@]1(OC(C)=O)CO[C@@H]1C[C@@H]2O` [TXL, paclitaxel], for which, in [1] (single agent), the “primary dose limiting toxic effect” value was “myelosuppression”. Further, the “effect on microtubule assembly and stability” value in the data set on microtubules is “promotes the assembly of microtubules from tubulin dimers and stabilizes microtubules by preventing depolymerization”. In [4], the activity result is reported as “activity against refractory ovarian cancer”. Also, in the data set with P388 Murine Tumor, the “Increased Life-Span” value is given as “+100%”, the “Long-term Survivors” value is reported as 0/5 and the “Median Survival Time (± SEM)” value was determined as 16 ± 2 days. Besides, the MTD in “in vivo” is 18 mg/kg. Further, in the data set on breast cancer, the “curative effect of the single agent” value is reported as “neither edatrexate nor paclitaxel alone is curative for most metastatic breast cancer patients” and the antitumor activity result was “anti-tumor properties in some breast cancer patients”.

The values above are taken from patent US6262054A (priority 1996, dated 2001).
